For experiment [1], the target named is T1, p53 Y220C mutant protein (amino acid residues 94-293) (Homo sapiens, UniProt P04637, Y220C).
T1 construct: p53 Y220C mutant protein (amino acid residues 94-293)
The experiment can be described thus: Surface Plasmon Resonance (SPR) assay, Kd_kinetic. It is filed as binding. As to conditions: read-out: SPR P53 Y220C KD kinetic. The method, boiled down: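 Surface plasmon resonance is run at 16 or 20 °C in 50 mM Tris pH 7.5 containing 100 mM NaCl, 1 mM DTT, 0.01% Brij35, 0.05% Tween-20 and 1% DMSO. Association and dissociation data are fitted to a 1:1 model.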

A further experiment deals with H1299 p53 Y220C. The experiment can be described thus: Cell Proliferation Assay (CellTiter-Glo, CTG), H1299 p53 Y220C (NClH1299-inducible p53 Y220C). It is filed as cell-based. As to conditions: Homo sapiens, NCI-H1299, 120 h, CellTiter-Glo, H1299 p53 Y220C, 5 days. The method, boiled down:
(§1)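 Cells seeded at 250-500 per well and exposed to compound for 5 days. Viability read by CellTiter-Glo luminescence after 10 min at room temperature; IC50 calculated. H1299 lines carry Tet-One inducible p53 mutant constructs introduced by lentiviral transduction.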
For orientation: Cellular ATP, detected with luciferase, serves as a proxy for viable cell number.

Another experiment relates to H1299 p53 R273H. As to the kind of experiment: Cell Proliferation Assay (CellTiter-Glo, CTG), H1299 p53 R273H (NClH1299-inducible p53 R273H). As to conditions: Homo sapiens, NCI-H1299, 120 h, CellTiter-Glo, H1299 p53 R273H, 5 days. It is filed as cell-based. The gist of the method: as §1
Experiment [2] addresses T1, p53 Y220C mutant protein (amino acid residues 94-293). As to the kind of experiment: Thermal Shift Assay (TSA), dTM. The class given is binding. As to conditions: thermal shift; for ΔTm at 10 µM: 10 uM compound, read-out: TSA P53 Y220C dTM (10 uM); for ΔTm at 100 µM: 100 uM compound, read-out: TSA P53 Y220C dTM (100 uM). The method, boiled down: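 Sypro Orange melt (30→50 °C, 0.03 °C/s) with TM taken from a Boltzmann two-state fit. Protein (residues 94-293) at 5 μM was pre-incubated 3 h at 20 °C with compound at 10 μM or 100 μM in pH 7.4 HEPES/NaCl buffer containing 0.01% Pluronic F-127 and 1% DMSO.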

For another experiment, the target named is p53 Y220C (Homo sapiens, UniProt P04637, Y220C). As to the kind of experiment: Luciferase Reporter Assay (Luc), p53 response element, NClH1299 cells with inducible p53 Y220C. It is filed as cell-based. As to conditions: luciferase reporter, NClH1299 inducible p53 Y220C, 6 hour; for Emax: 10 uM tool compound as positive control; for AC50: read-out: Luc P53 Y220C AC50. The gist of the method: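 Cells were seeded at 5,000 per well and induced with 0.5 ug/mL doxycycline for 24 hours, then exposed to compound for 6 hours. One-Glo reagent was added, plates shaken 5 minutes at room temperature, and luminescence read immediately.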
On the technique in general: In a reporter assay the amount or activity of a reporter protein is the signal.

The test system of the next experiment is NUGC3 p53 Y220C. The experiment can be described thus: Cell Proliferation Assay (CellTiter-Glo, CTG), NUGC3 p53 Y220C. The class given is cell-based. As to conditions: Homo sapiens, NUGC-3, 120 h, CellTiter-Glo, NUGC3 p53 Y220C, 5 days. The gist of the method:
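Tet-One inducible p53 Y220C or R273H constructs were stably introduced into NCI-H1299 by lentiviral transduction; NUGC3 was used as is. Cells (250-500 per well) were exposed to compound for 5 days, then CellTiter-Glo was added for 10 min at room temperature and IC50 was calculated from luminescence.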

Like-named read-outs stand apart in the source and are kept apart here. Some results are limits rather than exact numbers.

As for `CNC(=O)c1ccc(OC)c(NCC#Cc2nc3c(N[C@@H]4CN(C)C[C@@H]4F)cccn3c2SC(F)(F)F)c1` [Example 153], the Kd (commonly the constant that tells how readily two partners part at equilibrium) in experiment [1] (SPR, kinetic KD, p53 Y220C) is below 10 nM. For the same compound, the IC50 – broadly, the concentration that inhibits the measured activity by half – with H1299 p53 Y220C is below 750 nM; with H1299 p53 R273H, at least 10000 nM; in the experiment on NUGC3 p53 Y220C it was below 750 nM. Besides, in experiment [2], the ΔTm at 10 µM is at least 10 °C. For the same compound, the ΔTm at 100 µM in experiment [2] is at least 10 °C. On p53 Y220C, the maximum response (Emax) (as a rule, the size of the effect at its maximum, as opposed to the concentration needed) lay within 80 to 90%. The half-maximal activity concentration (AC50) – broadly, the concentration at which the activity in the assay is half-maximal – on p53 Y220C is below 750 nM.
For `CNC(=O)c1ccc(OC)c(NCC#Cc2nc3c(N[C@@H]4CCN(C)C[C@@H]4F)cc(F)cn3c2SC(F)(F)F)c1` [Example 154, 3-{[3-(6-fluoro-8-{[(3S,4R)-3-fluoro-1-methylpiperidin-4-yl]amino}-3-[(trifluoromethyl)sulfanyl]imidazo[1,2-a]pyridin-2-yl)prop-2-yn-1-yl]amino}-4-methoxy-N-methylbenzamide], in experiment [1] (SPR, kinetic KD, p53 Y220C), the Kd was below 10 nM. Also, the figures for the IC50 in the experiment with H1299 p53 Y220C, in the experiment with H1299 p53 R273H and with NUGC3 p53 Y220C were below 750 nM, below 5000 nM and below 750 nM, respectively. Besides, the ΔTm at 10 µM in experiment [2] was at least 10 °C. In experiment [2], the ΔTm at 100 µM was at least 10 °C. In addition, the Emax on p53 Y220C lay in the range of 70 to 80%. Moreover, at p53 Y220C, the AC50 is below 750 nM.
Take `CNC(=O)c1ccc(NCC#Cc2cc3c(N[C@@H]4CCN(C)C[C@@H]4F)nccn3c2SC(F)(F)F)c(OC)c1` [Example 155, 4-{[3-(1-{[(3S,4R)-3-fluoro-1-methylpiperidin-4-yl]amino}-6-[(trifluoromethyl)sulfanyl]pyrrolo[1,2-a]pyrazin-7-yl)prop-2-yn-1-yl]amino}-3-methoxy-N-methylbenzamide; formic acid]: in experiment [1], the Kd was below 10 nM. The compound further returned an IC50 with H1299 p53 Y220C below 750 nM. For the same compound, the IC50 with H1299 p53 R273H lay within 8000 to 10000 nM. For the same compound, in experiment [2], the ΔTm at 10 µM was at least 10 °C and the ΔTm at 100 µM was at least 10 °C. In addition, on p53 Y220C, the Emax is above 90% and the AC50 is below 750 nM. This compound yielded an IC50 with NUGC3 p53 Y220C below 750 nM.
Regarding `CNC(=O)c1ccc(OC)c(NCC#Cc2cc3c(N[C@@H]4CCN(C)C[C@@H]4F)nccn3c2SC(F)(F)F)c1` [Example 156, 3-{[3-(1-{[(3S,4R)-3-fluoro-1-methylpiperidin-4-yl]amino}-6-[(trifluoromethyl)sulfanyl]pyrrolo[1,2-a]pyrazin-7-yl)prop-2-yn-1-yl]amino}-4-methoxy-N-methylbenzamide], the Kd in experiment [1] (SPR, kinetic KD, p53 Y220C) was below 10 nM. For the same compound, the IC50 with H1299 p53 Y220C was below 750 nM. For the same compound, the IC50 in the experiment with H1299 p53 R273H was 8000 to 10000 nM. Further, in experiment [2], the ΔTm at 10 µM is at least 10 °C and the ΔTm at 100 µM was at least 10 °C. Besides, at p53 Y220C, the Emax is above 90% and the AC50 is below 750 nM. The same compound had an IC50 with NUGC3 p53 Y220C below 750 nM.
Turning to `CNC(=O)c1ccc(OC)c(NCC#Cc2nc3c(N[C@@H]4CCN(C)C[C@@H]4F)cccn3c2SC(F)(F)F)n1` [Example 158], in experiment [1], the Kd was below 10 nM. In addition, the IC50 in the experiment on H1299 p53 Y220C was below 750 nM. For the same compound, in the experiment with H1299 p53 R273H, the IC50 fell in the range of 5000 to 8000 nM. In experiment [2], the ΔTm at 10 µM is at least 10 °C and the ΔTm at 100 µM was at least 10 °C. Moreover, at p53 Y220C, the Emax was 80 to 90% and the AC50 was below 750 nM. The IC50 in the experiment with NUGC3 p53 Y220C is below 750 nM.
With `CNC(=O)c1ccc(F)c(NCC#Cc2nc3c(N[C@@H]4CCN(C)C[C@@H]4F)cccn3c2SC(F)(F)F)c1` [Example 159], in experiment [1] (SPR, kinetic KD, p53 Y220C), the Kd is below 10 nM. Further, the IC50 was below 750 nM with H1299 p53 Y220C, at least 10000 nM in the experiment on H1299 p53 R273H and below 750 nM in the experiment on NUGC3 p53 Y220C. The ΔTm at 10 µM in experiment [2] is at least 10 °C. Further, on p53 Y220C, the Emax is above 90%. Besides, on p53 Y220C, the AC50 is below 750 nM.
With `CNC(=O)c1ccc(C)c(NCC#Cc2nc3c(N[C@@H]4CCN(C)C[C@@H]4F)cccn3c2SC(F)(F)F)c1` [Example 160], the dissociation constant (Kd) in experiment [1] (SPR, kinetic KD, p53 Y220C) was below 10 nM. Also, in the experiment on H1299 p53 Y220C, the IC50 was below 750 nM. For the same compound, the IC50 in the experiment with H1299 p53 R273H was at least 10000 nM. Further, in experiment [2], the ΔTm at 10 µM was at least 10 °C and the ΔTm at 100 µM is at least 10 °C. For the same compound, at p53 Y220C, the Emax was above 90% and the AC50 was below 750 nM. In the experiment with NUGC3 p53 Y220C, this compound showed an IC50 below 750 nM.
